The test system of assay [1] is chloroform-induced arrhythmia (ventricular fibrillation). As to the kind of experiment: Effect on chloroform-induced arrhythmia. In kind it is in vivo, male ddy mice. The conditions noted are these: for Percent occurrence of ventricular fibrillation: 15 min before chloroform, control 100. From the text:
When they stopped breathing, they were thoracotomized to examine the occurrence of ventricular fribrillation. The results are noted in Table 2 as percent occurrence of ventricular fibrillation.

For assay [2], the target named is T1, 3-hydroxy-3-methylglutaryl coenzyme A (HMG-Co A) reductase (Rattus norvegicus, UniProt P51639).
T1 sequence (P51639 1-887): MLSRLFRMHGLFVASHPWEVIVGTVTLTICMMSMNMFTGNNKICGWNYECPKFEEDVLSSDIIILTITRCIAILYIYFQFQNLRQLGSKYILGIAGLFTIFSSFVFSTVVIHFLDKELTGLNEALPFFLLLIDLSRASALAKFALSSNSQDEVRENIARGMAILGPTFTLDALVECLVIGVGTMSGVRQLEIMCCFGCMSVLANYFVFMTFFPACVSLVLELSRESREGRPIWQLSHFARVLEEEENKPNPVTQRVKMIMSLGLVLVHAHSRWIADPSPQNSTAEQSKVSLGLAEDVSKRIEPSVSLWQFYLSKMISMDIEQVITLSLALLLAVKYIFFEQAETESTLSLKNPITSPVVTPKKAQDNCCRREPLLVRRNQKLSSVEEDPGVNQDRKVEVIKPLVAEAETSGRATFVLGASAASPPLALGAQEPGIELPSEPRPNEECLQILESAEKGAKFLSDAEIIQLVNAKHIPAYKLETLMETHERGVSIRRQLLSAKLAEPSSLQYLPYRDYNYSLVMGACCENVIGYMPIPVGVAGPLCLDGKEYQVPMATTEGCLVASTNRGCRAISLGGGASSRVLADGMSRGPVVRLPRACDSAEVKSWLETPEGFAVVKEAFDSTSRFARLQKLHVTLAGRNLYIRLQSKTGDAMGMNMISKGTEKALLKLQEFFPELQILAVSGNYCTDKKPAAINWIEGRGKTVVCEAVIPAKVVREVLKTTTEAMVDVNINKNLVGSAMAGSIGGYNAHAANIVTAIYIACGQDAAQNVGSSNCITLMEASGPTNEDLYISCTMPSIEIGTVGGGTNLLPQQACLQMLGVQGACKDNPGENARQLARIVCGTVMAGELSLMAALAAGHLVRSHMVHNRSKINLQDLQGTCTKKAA
As to the kind of experiment: Inhibition of HMG-CoA reductase activity. In kind it is biochemical, rat (liver microsome). The conditions noted are these: read-out: IC30 (amount necessary for inhibiting the enzymatic activity by 30%). From the text:
Inhibition of the activity of 3-hydroxy-3-methylglutaryl coenzyme A (HMG-Co A) reductase
On the technique in general: Microsomes from liver hold many membrane-bound enzymes, among them those of drug oxidation.

One may read the IC30 as the concentration at which the effect reaches the 30% level. Consider `CCCCCC(O)CCCC(=O)[O-].[Na+]` (centres unmarked), for which the “Percent occurrence of ventricular fibrillation” value in assay [1] (50 mg/kg, oral) turned out to be 50; in assay [1] (100 mg/kg, oral, *P < 0.05) it was 30. Moreover, the “anti-arrhythmic potency compared with lidocaine (in words)” value in assay [1] (100 mg/kg oral vs lidocaine 10 mg/kg i.p.) is “more potent than lidocaine”. The “anti-arrhythmic effects (in words)” value in assay [1] (100 mg/kg, oral) is recorded as “significant anti-arrhythmic effects”. For the same compound, the IC30 in assay [2] stood at 100 µM.

For the origin of these results see US4578400A, “Therapeutic composition and method for treatment of cardiovascular diseases” (priority 1982, dated 1986).
